How the values were obtained:
[1] = test system: bronchial epithelial cells; experiment: Trans-epithelium electric resistance (TEER) of bronchial epithelial cells on […]; format: cell-based, human
Procedure: In a further investigation, effects of culture media calcium content on intercellular junctions was assessed for bronchial epithelial cells cultured in KSFM plus A83-01 and Y-27632. Intercellular junctions were assessed according to paracellular flow of ions as measured by trans-epithelium electric resistance (TEER). […] Bronchial epithelial cells were plated on porous membrane support ([…], Corning, 354474) and maintained for 7 days when the membrane was covered with culture medium (submerged phase, grayed box in FIG. 29, top panel). On day 8, the medium was removed from the apical side of the membrane, and the cells were exposed to air to induce further differentiation. Further, as shown in FIG. 29 (bottom panel), bronchial epithelial cells established increasing transmembrane electric resistance (TEER) over time in the presence of high concentration (1 mM) of CaCl2 in KSFM plus A 83-01 and Y-27632. Bronchial epithelial cells were plated on a porous membrane support ([…], Corning, 354474) and maintained for 24 days, with the membrane covered by culture medium for the duration of the culture. Trans-epithelium electric resistance (TEER) remained at a high level throughout the culture period.

[2] = test system: human foreskin keratinocytes (HFK); experiment: TEER in air-liquid-interface differentiation of keratinocytes; format: cell-based; conditions: 1.5 mM CaCl2 in KSFM+A+Y, 14 days
Procedure: Keratinocytes established increasing transmembrane electric resistance (TEER) over time in air-liquid-interface differentiation, in the presence of high concentration (1.5 mM) of CaCl2 in KSFM plus A 83-01 and Y-27632. Specifically, human foreskin keratinocytes (HFK) previously cultured in KSFM supplemented with 1 μM A83-01 and 5 μM Y-27632 (KSFM+A+Y) at low CaCl2 (90 μM) were plated on a porous membrane support ([…], Corning, 354474) and maintained for 14 days. The cells were covered by culture medium (KSFM+A+Y and 1.5 mM of CaCl2) for the first day (submerged phase, grayed box in FIG. 34) and exposed to air for the remaining days.

[3] = test system: human bronchial epithelial cells (HBEC) and human foreskin keratinocytes (HFK); experiment: Dome-like structure formation at high CaCl2; format: cell-based; conditions: CaCl2 raised to 1.5 mM in KSFM+A+Y, 7 to 10 days
Procedure: Dome-like structures formed in keratinocyte and bronchial epithelial cell cultures in the presence of high concentration of CaCl2. Specifically, late passage human bronchial epithelial cells (HBEC) and late passage human foreskin keratinocytes (HFK) cultured in KSFM supplemented with 1 μM A 83-01 and 5 μM Y-27632 (KSFM+A+Y) at low CaCl2 (90 μM) were allowed to reach confluence in 6-well plates. The cells remained in the KSFM+A+Y conditions and the CaCl2 concentration was raised to 1.5 mM to induce differentiation of the epithelial cells.

[4] = test system: human foreskin keratinocytes (HFK); experiment: Epidermal-like structure in air-liquid-interface differentiation (H&E); format: cell-based; conditions: 1.5 mM CaCl2 in KSFM+A+Y, day 14
Procedure: Keratinocytes formed an epidermal-like structure over time in air-liquid-interface differentiation, in the presence of high concentration (1.5 mM) of CaCl2 in KSFM plus A 83-01 and Y-27632. Specifically, human foreskin keratinocytes (HFK) previously cultured in KSFM supplemented with 1 μM A83-01 and 5 μM Y-27632 (KSFM+A+Y) at low CaCl2 (90 μM) were plated on a porous membrane support ([…], Corning, 354474) and maintained for 14 days. The cells were covered by culture medium (KSFM+A+Y and 1.5 mM of CaCl2) for the first day and exposed to air for the remaining days. At the end of experiment (i.e., on day 14), the culture was fixed in 4% paraformaldehyde, embedded in paraffin and sectioned for haematoxylin and eosin staining (H&E) to reveal its structure.

[5] = test system: human foreskin keratinocytes (HFK); experiment: Tight junction formation, ZO-1 immunofluorescence; format: cell-based; conditions: CaCl2 raised to 1.5 mM in KSFM+A+Y
Procedure: Specifically, late passage human foreskin keratinocytes (HFK) cultured in KSFM supplemented with 1 μM A83-01 and 5 μM Y-27632 (KSFM+A+Y) at low CaCl2 (90 μM) were allowed to reach confluence. The cells remained in the KSFM+A+Y conditions and the CaCl2 concentration was raised to 1.5 mM to induce differentiation.

[6] = test system: human bronchial epithelial cells; experiment: Effect of culture media calcium content on cell behavior; format: cell-based; conditions: 1 mM CaCl2 in KSFM plus A83-01 and Y-27632
Procedure: Effects of culture media calcium content on cell behavior were assessed for epithelial cells cultured in KSFM plus A83-01 and Y-27632. Human bronchial epithelial cells were grown KSFM (with 90 μM CaCl2) plus A83-01 and Y-27632. These cells dispersed throughout the culture vessel (FIG. 28, left panel), and few cells formed intercellular connections, even when they were in close proximity to each other. […] Cells in the center of the patches tended to pile up, and boundaries between individual cells generally were not discernable. In certain instances, abnormal elongations formed between clusters.

[7] = test system: hAECs; experiment: Effect of interferon γ on immunomodulatory gene expression in hAECs (qRT-PCR); format: cell-based, human; conditions: 100 ng/mL, 48 hours
Procedure: In certain instances, treatment of hAECs with interferon γ (INFγ) leads to an upregulation of genes involved in immune suppression. However, cultured hAECs typically lose their functional phenotype (see e.g., cells tested at passage 5 in Pratama et al. 2011 PLoS ONE 6(11): e26136). In this example, hAECs isolated from two different donors (Donor 1 and Donor 2), were tested for their response to INFγ both in KSFM A+Y and after removal from growth conditions and placement into standard hAEC media (DMEM:F12 10% FBS). Cells from both donors grown in KSFM A+Y at passage 4 at ˜80% confluence were either kept in KSFM A+Y, changed to KSFM A+Y+100 ng/mL INFγ, or changed to DMEM:F12+/−100 ng/mL INFγ. The cells were left for an additional 48 hours in each condition. qRT-PCR was used to examine expression levels of HLA-G, Indoleamine 2,3-dioxygenase (IDO), and Programmed Death Ligand 1 (PD-L1) (see FIGS. 46A-46D).
HLA-G can have a wide variety of immunomodulatory effects on numerous immune cells. Expression of HLA-G is generally considered a prominent feature of hAECs, and often is lost during expansion in culture. […] IDO is the first and rate-limiting enzyme of tryptophan catabolism through the kynurenine pathway, thus causing depletion of tryptophan which can inhibit T cell proliferation. […] PD-L1 may play a major role in immune suppression, inhibiting the proliferation and inducing apoptosis of T cells.

[8] = test system: CD4+ and CD8+ T cells (human PBMCs); experiment: T cell proliferation, Cell Trace CFSE stained PBMCs with PHA co-incubated with hAECs; format: cell-based; conditions: 48 hour preincubation of hAECs with interferon γ 100 ng/ml
Source text: Human Peripheral Blood Mononuclear Cells (PBMCs) were isolated and stained with Cell Trace CFSE (Thermo Fisher Scientific). Cell Trace CFSE is a cell permeable amine reactive fluorescent dye that non-specifically labels intracellular proteins. Through subsequent cell divisions each daughter cell receives approximately half of the label allowing for determination of the intensity of fluorescence by flow cytometry and correlation to the number of cell divisions. Cell Trace CFSE stained PBMCs were added to ˜80% confluent monolayers of hAECs from Donor 1 (P4) and Donor 2 (P4) expanded in KSFM A+Y. Upon addition of the stained PMBCs the media was changed to RPMI media with 10% FBS and 5 μg/ml phytohaemagglutinin (PHA). PHA is a potent mitotic agent used to activate and stimulate proliferation of lymphocytes. The expanded hAECs were used directly from growth conditions or after a 48 hour preincubation with Interferon γ (100 ng/ml; Thermo Fisher Scientific). This treatment can increase the immunosuppressive effect of hAECs. […] The degree of inhibition of proliferation was calculated by determining the number of cells that proliferated in the presence of hAECs relative to the number of cells that proliferated when exposed to PHA treatment alone (FIG. 45D). […]

Molecule: [Ca+2].[Cl-].[Cl-] [CaCl2]
- intercellular junctions (TEER) ([1]; high concentration (1 mM) in KSFM plus A 83-01 and Y-27632): established tight intercellular junctions
- intercellular junctions (TEER) ([1]; low concentration (90 μM) in KSFM plus A 83-01 and Y-27632): failed to establish tight intercellular junctions
- trans-epithelium electric resistance (TEER) [2]: reached very high levels
- dome-like structure formation [3]: Many dome-like structures were formed
- epidermal-like structure formation [4]: differentiated into multi-layer structures
- tight junction formation (ZO-1) [5]: Tight junction formation was observed
- cell behavior [6]: aggregate into tight clusters

B1: interferon γ: Interferon γ (100 ng/ml; Thermo Fisher Scientific) (protein, UniProt P01579 24-161, looked up)
Interferon gamma: QDPYVKEAENLKKYFNAGHSDVADNGTLFLGILKNWKEESDRKIMQSQIVSFYFKLFKNFKDDQSIQKSVETIKEDMNVKFFNSNKKKRDDFEKLTNYSVTDLNVQRKAIHELIQVMAELSPAAKTGKRKRSQMLFRG
- IDO expression [7]: increases dramatically
- PD-L1 expression [7]: dramatic increase in expression
- HLA-G expression ([7]; after moving cells to standard media (DMEM:F12)): greatly increased
- inhibition of T cell proliferation by hAECs [8]: increased
